Literature values, collected in patent US6852743B1, “Preventives for the recurrence of cerebrovascular failure and agents for ameliorating troubles following cerebrovascular failure and inhibiting progress thereof” (Takeda Pharmaceutical Company Limited, priority 1999, dated 2005).

Key:
[1] = system: insulin sensitivity; conditions: clinically; Iimura O. et al., Am J Hypertens 8, 353-357, 1995
[2] = system: automatic regulation of cerebral blood flow; conditions: literature report, Vraamark T et al., J Hypertens 13:755-761, 1995

| Compound | insulin sensitivity [1] | effect on the lower limit of automatic regulation [2] |
| --- | --- | --- |
| CCOc1nc2cccc(C(=O)OC(C)OC(=O)OC3CCCCC3)c2n1Cc1ccc(-c2ccccc2-c2nnn[nH]2)cc1 (centres unmarked) [Candesartan cilexetil, 1-(cyclohexyloxycarbonyloxy)ethyl 2-ethoxy-1-[[2′-(1H-tetrazole-5-yl)biphenyl-4-yl]methyl]benzimidazole-7-carboxylate] | improve insulin sensitivity clinically | – |
| CCOc1nc2cccc(C(=O)O)c2n1Cc1ccc(-c2ccccc2-c2nnn[nH]2)cc1 [Candesartan, 2-ethoxy-1-[[2′-(1H-tetrazole-5-yl)biphenyl-4-yl]methyl]benzimidazol-7-carboxylic acid] | – | can deviate the lower limit of automatic regulation leftward (toward lower blood pressure level) |
